≈ marks a conversion by molar mass, not a printed value. Entries after “also recorded” stand apart in the source; their conditions may differ.
What was measured:
Trichoderma lignorum = assay: agar dilution MIC; type: cell-based; details: strain MF3560, yeast nitrogen base agar
Description: (§1) Minimum inhibiting concentration against representative fungal organisms may be seen in the results of tests carried out by the agar dilution method in which an aqueous suspension of the metabolite was solubilized by adding a small amount of methanol. Further dilutions were made employing water. The diluted samples were added to molten agar to produce final concentrations of 512 μg/ml and lower. The molten agar was yeast nitrogen base agar prepared by adding 1 part of sterile yeast nitrogen base agar to 9 parts 2% Difco agar.

Verticillium serrae = assay: agar dilution MIC; type: cell-based; details: strain MF3794, yeast nitrogen base agar
Description: as §1

Cercospora beticola = assay: agar dilution MIC; type: cell-based; details: strain MF4608, yeast nitrogen base agar
Description: as §1

Ceratocystis ulmi = assay: agar dilution MIC; type: cell-based; details: strain MF4042, yeast nitrogen base agar
Description: as §1

Fusarium oxysporium = assay: agar dilution MIC; type: cell-based; details: strain MF4014, yeast nitrogen base agar
Description: as §1

Cephalosporium sp. = assay: agar dilution MIC; type: cell-based; details: strain MF4641, yeast nitrogen base agar
Description: as §1

Cr. albidus = assay: agar dilution MIC; type: cell-based; details: strain MY1070, yeast nitrogen base agar
Description: as §1

Cr. laurentii = assay: agar dilution MIC; type: cell-based
Description: as §1

[1] = tested on: Debaryomyces guilliermondi; assay: agar dilution MIC; type: cell-based; details: strain MY321, yeast nitrogen base agar
Description: as §1

C. tropicalis = assay: agar dilution MIC; type: cell-based; details: strain MY1012, yeast nitrogen base agar
Description: as §1

A. flavus = assay: agar dilution MIC; type: cell-based; details: strain MF383, yeast nitrogen base agar
Description: as §1

C. rugosa = assay: agar dilution MIC; type: cell-based; details: strain MY1022, yeast nitrogen base agar
Description: as §1

Aspergillus niger = assay: agar dilution MIC; type: cell-based
Description: as §1

Scopulariopsi communis = assay: agar dilution MIC; type: cell-based; details: strain MF3769, yeast nitrogen base agar
Description: as §1

Aspergillus fumigatus = assay: agar dilution MIC; type: cell-based; details: strain MF4839, yeast nitrogen base agar
Description: as §1

Trichoderma sp. = assay: agar dilution MIC; type: cell-based; details: strain MF4064, yeast nitrogen base agar
Description: as §1

Candida pseudotropicalis = assay: agar dilution MIC; type: cell-based; details: strain MY1100, yeast nitrogen base agar
Description: as §1

Cryptococcus neoformans = assay: agar dilution MIC; type: cell-based
Description: as §1

Penicillium sp. = assay: agar dilution MIC; type: cell-based
Description: as §1

Ustilago maydis = assay: agar dilution MIC; type: cell-based; details: strain MF1996, yeast nitrogen base agar
Description: as §1

bacteria = assay: antibacterial activity (summary statement); type: cell-based; details: in words, no data shown
[2] = tested on: filamentous fungi and yeast organisms; assay: antifungal activity (summary statement); type: cell-based; details: in words
Description: as §1

[3] = solubility in organic solvents; type: physicochemical; details: organic solvents such as methanol, ethanol, dimethylformamide, dimethyl sulfoxide, ethyl acetate

CCCCCCC(C)CC(C)=CC(C=C(C)C=CC(O)C(C)(C)c1cc(O)c(C2OC(CO)CC(O)C2O)c(=O)o1)CO (centres unmarked) [Compound I]
MIC (Trichoderma lignorum): 6.2 µg/mL (≈ 10.2 µM)
MIC (Verticillium serrae): 25 µg/mL (≈ 41.2 µM)
MIC (Cercospora beticola): 4 µg/mL (≈ 6.59 µM)
MIC (Ceratocystis ulmi): 25 µg/mL (≈ 41.2 µM)
MIC (Fusarium oxysporium): 25 µg/mL (≈ 41.2 µM)
MIC (Cephalosporium sp.): 12.5 µg/mL (≈ 20.6 µM)
MIC (Cr. albidus): 8 µg/mL (≈ 13.2 µM)
MIC (Cr. laurentii; strain MY1073, yeast nitrogen base agar): 6.2 µg/mL (≈ 10.2 µM)
MIC (Cr. laurentii; strain MY1074, yeast nitrogen base agar): 8 µg/mL (≈ 13.2 µM)
MIC (Cr. laurentii; strain MY1077, yeast nitrogen base agar): 12.5 µg/mL (≈ 20.6 µM)
MIC [1]: 6.2 µg/mL (≈ 10.2 µM)
MIC (C. tropicalis): 25 µg/mL (≈ 41.2 µM)
MIC (A. flavus): 64 µg/mL (≈ 105 µM)
MIC (C. rugosa): 25 µg/mL (≈ 41.2 µM)
MIC (Aspergillus niger; strain MF11, yeast nitrogen base agar): 1.6 µg/mL (≈ 2.64 µM)
MIC (Aspergillus niger; strain MF442, yeast nitrogen base agar): 3.1 µg/mL (≈ 5.11 µM)
MIC (Scopulariopsi communis): 6.2 µg/mL (≈ 10.2 µM)
MIC (Aspergillus fumigatus): 64 µg/mL (≈ 105 µM)
MIC (Trichoderma sp.): 1.6 µg/mL (≈ 2.64 µM)
MIC (Candida pseudotropicalis): 25 µg/mL (≈ 41.2 µM)
MIC (Cryptococcus neoformans; strain MY1046, yeast nitrogen base agar): 8 µg/mL (≈ 13.2 µM)
MIC (Cryptococcus neoformans; strain MY1050, yeast nitrogen base agar): 32 µg/mL (≈ 52.7 µM)
MIC (Cryptococcus neoformans; strain MY1051, yeast nitrogen base agar): 128 µg/mL (≈ 211 µM)
MIC (Penicillium sp.; strain MF5014, yeast nitrogen base agar): 3.1 µg/mL (≈ 5.11 µM)
MIC (Penicillium sp.; strain MF5020, yeast nitrogen base agar): 1.6 µg/mL (≈ 2.64 µM)
MIC (Ustilago maydis): 8 µg/mL (≈ 13.2 µM)
antibacterial properties (bacteria): antibacterial properties
antifungal activity [2]: active against a moderately broad spectrum of filamentous fungi and yeast organisms; also recorded: excellent antifungal properties against many filamentous and many yeast organisms
solubility [3]: soluble
